From article PMC10762177, “Novel betulin derivatives as multidrug reversal agents targeting P-glycoprotein” (Scientific Reports, 2024)
Values joined by “and” are separate entries in the source; they are usually repeats but may differ in a detail not shown here. Equal values may be shown once. Where a name gives a salt, the structure may show the parent alone. Read-outs that look alike come from different tables or passages of the source.

How the values were obtained:
[1] = tested on: K562/Dox cells; experiment: MTT colorimetric assay, cytotoxicity on resistant K562/Dox; assay type: cell-based; conditions: for IC50: Homo sapiens, K562, 48 h, read-out: IC50 K562/Dox; for toxicity: 50 μM
Description: This colorimetric technique is based on the ability of viable cells to capture MTT and reduce it through the mitochondrial enzyme succinic dehydrogenase to its insoluble form, formazan crystals. The target compounds dissolved in DMSO (0.5% v/v as final concentration which was non-toxic to cells) at a maximum concentration of 50 µM were exposed to 5 × 10^4 cells distributed in a 96-well plate and incubated for 48 h. […] After this time, the plate was centrifuged at 2000 rpm for 10 min, and 100 µL of DMSO was added to dissolve the formazan crystals formed. Absorbance (Abs) was read at a wavelength of 595 nm in an iMark microplate reader (Bio-Rad, USA). The percentages of cytotoxicity were determined as compared to DMSO treated control cells, which were considered 100% viable as showing the same level of growth as the untreated cells.

[2] = tested on: K562 cells; experiment: MTT colorimetric assay, cytotoxicity on sensitive K562; assay type: cell-based; conditions: for IC50: MTT, 48 h; for toxicity: 50 μM, K562, MTT
Description: This colorimetric technique is based on the ability of viable cells to capture MTT and reduce it through the mitochondrial enzyme succinic dehydrogenase to its insoluble form, formazan crystals. […] After this time, the plate was centrifuged at 2000 rpm for 10 min, and 100 µL of DMSO was added to dissolve the formazan crystals formed. Absorbance (Abs) was read at a wavelength of 595 nm in an iMark microplate reader (Bio-Rad, USA).

[3] = target: P-gp (Homo sapiens, UniProt P08183); experiment: Rhodamine 123 intracellular accumulation assay in K562/Dox (flow cytometry); conditions: for FAR (fluorescence activity ratio): Rho123, K562/Dox; for MEC (minimum effective concentration): Rho123 accumulation
Sequence of P-gp (P08183 whole entry): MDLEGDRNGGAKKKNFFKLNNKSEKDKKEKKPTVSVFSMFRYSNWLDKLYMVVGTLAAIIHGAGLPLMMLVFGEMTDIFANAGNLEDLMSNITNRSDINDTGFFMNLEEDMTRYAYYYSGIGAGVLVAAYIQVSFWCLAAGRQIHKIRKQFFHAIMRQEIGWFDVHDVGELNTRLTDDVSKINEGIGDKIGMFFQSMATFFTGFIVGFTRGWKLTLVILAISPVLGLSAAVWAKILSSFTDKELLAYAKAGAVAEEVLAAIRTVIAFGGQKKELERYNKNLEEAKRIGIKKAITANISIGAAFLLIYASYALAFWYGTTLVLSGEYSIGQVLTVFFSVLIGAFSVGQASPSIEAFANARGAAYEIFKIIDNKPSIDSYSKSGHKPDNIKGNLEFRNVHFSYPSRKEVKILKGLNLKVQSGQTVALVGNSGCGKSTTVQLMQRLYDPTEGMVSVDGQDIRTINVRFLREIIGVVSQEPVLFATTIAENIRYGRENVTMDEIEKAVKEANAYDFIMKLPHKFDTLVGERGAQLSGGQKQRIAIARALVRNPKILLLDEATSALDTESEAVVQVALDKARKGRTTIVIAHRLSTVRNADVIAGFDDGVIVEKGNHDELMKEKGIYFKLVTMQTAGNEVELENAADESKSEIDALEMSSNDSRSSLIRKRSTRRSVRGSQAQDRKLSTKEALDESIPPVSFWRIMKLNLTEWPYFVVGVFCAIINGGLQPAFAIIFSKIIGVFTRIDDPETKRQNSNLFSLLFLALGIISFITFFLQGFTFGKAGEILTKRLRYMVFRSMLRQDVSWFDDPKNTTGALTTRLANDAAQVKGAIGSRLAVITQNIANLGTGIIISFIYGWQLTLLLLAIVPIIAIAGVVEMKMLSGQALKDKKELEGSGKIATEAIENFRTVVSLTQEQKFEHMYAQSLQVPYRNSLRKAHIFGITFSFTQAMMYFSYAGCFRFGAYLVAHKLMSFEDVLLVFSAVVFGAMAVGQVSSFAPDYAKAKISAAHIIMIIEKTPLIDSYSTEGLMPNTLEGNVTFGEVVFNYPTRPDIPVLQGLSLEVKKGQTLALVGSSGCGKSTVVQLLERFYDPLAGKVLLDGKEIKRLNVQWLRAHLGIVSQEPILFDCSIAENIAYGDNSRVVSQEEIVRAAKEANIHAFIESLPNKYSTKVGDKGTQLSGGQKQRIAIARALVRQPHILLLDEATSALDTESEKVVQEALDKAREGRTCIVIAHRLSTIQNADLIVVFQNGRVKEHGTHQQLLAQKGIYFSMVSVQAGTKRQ

C=C(C)[C@@H]1CC[C@]2(COC(=O)NCc3cc(OC)c(OC)c(OC)c3)CC[C@]3(C)[C@H](CC[C@@H]4[C@@]5(C)CC[C@H](O)C(C)(C)[C@@H]5CC[C@]43C)[C@@H]12 [Compound 6d]
IC50 ([1]; MTT, 48 h, K562/Dox): > 50 µM
IC50 ([2]; Homo sapiens, K562, 48 h, K562): > 50 µM
FAR (fluorescence activity ratio) ([3]; 0.78 µM): 1.16 ± 0.03
FAR (fluorescence activity ratio) ([3]; 1.56 µM): 1.27 ± 0.08
FAR (fluorescence activity ratio) ([3]; 3.12 µM): 1.64 ± 0.16
FAR (fluorescence activity ratio) ([3]; 6.25 µM): 1.88 ± 0.17
FAR (fluorescence activity ratio) ([3]; 25 µM): 2.48 ± 0.29
FAR (fluorescence activity ratio) ([3]; 50 µM): 2.80 ± 0.32
MEC (minimum effective concentration) ([3]; K562/Dox): 0.78 µM

C=C(C)[C@@H]1CC[C@]2(COC(=O)NCCc3ccc(OC)cc3)CC[C@]3(C)[C@H](CC[C@@H]4[C@@]5(C)CC[C@H](O)C(C)(C)[C@@H]5CC[C@]43C)[C@@H]12 [Compound 6e]
IC50 ([1]; MTT, 48 h, K562/Dox): > 50 µM
IC50 ([2]; Homo sapiens, K562, 48 h, K562): > 50 µM
FAR (fluorescence activity ratio) ([3]; 25 µM): 1.04 ± 0.11
FAR (fluorescence activity ratio) ([3]; 50 µM): 1.53 ± 0.09
MEC (minimum effective concentration) ([3]; K562/Dox): 50 µM and 50.0 µM

C=C(C)[C@@H]1CC[C@]2(COC(=O)NCCc3ccc(OC)c(OC)c3)CC[C@]3(C)[C@H](CC[C@@H]4[C@@]5(C)CC[C@H](O)C(C)(C)[C@@H]5CC[C@]43C)[C@@H]12 [Compound 6f]
IC50 ([1]; MTT, 48 h, K562/Dox): > 50 µM
IC50 ([2]; Homo sapiens, K562, 48 h, K562): > 50 µM
FAR (fluorescence activity ratio) ([3]; 0.78 µM): 1.02 ± 0.02
FAR (fluorescence activity ratio) ([3]; 1.56 µM): 1.13 ± 0.04
FAR (fluorescence activity ratio) ([3]; 3.12 µM): 1.25 ± 0.02
FAR (fluorescence activity ratio) ([3]; 6.25 µM): 1.45 ± 0.16
FAR (fluorescence activity ratio) ([3]; 12.50 µM): 1.73 ± 0.18
FAR (fluorescence activity ratio) ([3]; 25 µM): 1.95 ± 0.25
FAR (fluorescence activity ratio) ([3]; 50 µM): 2.27 ± 0.31
MEC (minimum effective concentration) ([3]; K562/Dox): 1.56 µM

C=C(C)[C@@H]1CC[C@]2(COC(=O)N3CCNCC3)CC[C@]3(C)[C@H](CC[C@@H]4[C@@]5(C)CC[C@H](O)C(C)(C)[C@@H]5CC[C@]43C)[C@@H]12 [Compound 6h]
toxicity ([1]; K562/Dox, MTT): more than 55%
IC50 ([1]; MTT, 48 h, K562/Dox): 12.5 ± 0.5 µM
toxicity [2]: more than 55%
IC50 ([2]; Homo sapiens, K562, 48 h, K562): 4.6 ± 0.24 µM
Rho123 accumulation / anti-P-gp activity ([3]; K562/Dox, highest concentrations tested (50 or 6.25 µM)): did not induce statistically significant Rho123 accumulation
FAR (fluorescence activity ratio) ([3]; 6.25 µM): 1.06 ± 0.08

C=C(C)[C@@H]1CC[C@]2(COC(=O)NCCN3CCN(C(=O)OC(C)(C)C)CC3)CC[C@]3(C)[C@H](CC[C@@H]4[C@@]5(C)CC[C@H](O)C(C)(C)[C@@H]5CC[C@]43C)[C@@H]12 [Compound 6j]
IC50 ([1]; MTT, 48 h, K562/Dox): > 50 µM
IC50 ([2]; Homo sapiens, K562, 48 h, K562): > 50 µM
FAR (fluorescence activity ratio) ([3]; 6.25 µM): 1.08 ± 0.04
FAR (fluorescence activity ratio) ([3]; 12.50 µM): 1.25 ± 0.02
FAR (fluorescence activity ratio) ([3]; 25 µM): 1.68 ± 0.03
FAR (fluorescence activity ratio) ([3]; 50 µM): 2.57 ± 0.11
MEC (minimum effective concentration) ([3]; K562/Dox): 12.50 µM

C=C(C)[C@@H]1CC[C@]2(COC(=O)NCCN3CCNCC3)CC[C@]3(C)[C@H](CC[C@@H]4[C@@]5(C)CC[C@H](O)C(C)(C)[C@@H]5CC[C@]43C)[C@@H]12 [Compound 6k]
toxicity ([1]; K562/Dox, MTT): more than 55%
IC50 ([1]; MTT, 48 h, K562/Dox): 27 ± 1.34 µM
toxicity [2]: more than 55%
IC50 ([2]; Homo sapiens, K562, 48 h, K562): 9.4 µM
IC50 ([2]; K562): 9.44 ± 0.08 µM
FAR (fluorescence activity ratio) ([3]; 0.78 µM): 1.03 ± 0.17
FAR (fluorescence activity ratio) ([3]; 1.56 µM): 1.35 ± 0.08
FAR (fluorescence activity ratio) ([3]; 3.12 µM): 1.48 ± 0.07
FAR (fluorescence activity ratio) ([3]; 6.25 µM): 2.24 ± 0.24
MEC (minimum effective concentration) ([3]; K562/Dox): 1.56 µM

C=C(C)[C@@H]1CC[C@]2(COC(=O)NCc3ccc(N4CCN(C)CC4)cc3)CC[C@]3(C)[C@H](CC[C@@H]4[C@@]5(C)CC[C@H](O)C(C)(C)[C@@H]5CC[C@]43C)[C@@H]12 [Compound 6l]
toxicity ([1]; K562/Dox, MTT): more than 55%
IC50 ([1]; MTT, 48 h, K562/Dox): 17.4 ± 0.59 µM
toxicity [2]: more than 55%
IC50 ([2]; Homo sapiens, K562, 48 h, K562): 8 ± 1.98 µM
FAR (fluorescence activity ratio) ([3]; 3.12 µM): 1.08 ± 0.05
FAR (fluorescence activity ratio) ([3]; 6.25 µM): 1.30 ± 0.04
FAR (fluorescence activity ratio) ([3]; 12.50 µM): 1.55 ± 0.03
MEC (minimum effective concentration) ([3]; K562/Dox): 6.25 µM

COc1cccc2c1C(=O)c1c(O)c3c(c(O)c1C2=O)C[C@@](O)(C(=O)CO)C[C@@H]3O[C@H]1C[C@H](N)[C@H](O)[C@H](C)O1 [Doxorubicin, Doxorubicin hydrochloride, reference compound]
IC50 ([1]; MTT, 48 h, K562/Dox): 84.2 ± 7.08 µM
fold resistance of K562/Dox versus K562 ([1]; ratio of IC50 values, MTT): 32.3
IC50 ([2]; Homo sapiens, K562, 48 h, K562): 2.61 ± 0.7 µM

COc1ccc(CCN(C)CCCC(C#N)(c2ccc(OC)c(OC)c2)C(C)C)cc1OC (centres unmarked) [Verapamil, Verapamil hydrochloride, reference compound]
inhibition on proliferation / toxicity ([1]; 50 μM (highest concentration assayed), K562/Dox): not toxic
IC50 [1]: > 50 µM
inhibition on proliferation / toxicity ([2]; 50 μM (highest concentration assayed), K562): not toxic
IC50 ([2]; Homo sapiens, K562): > 50 µM
